Patent US4052514A, “Trihalosubstituted biphenylyl propionic acids” (The Boots Company Limited, priority 1971, dated 1977)

test system: adjuvant arthritis; assay: rat adjuvant arthritis test (chronic; killed human tubercle bacilli, compounds given daily by mouth for 21 days); format: in vivo; details: daily by mouth for 21 days, reference 2-(2-fluoro-4-biphenylyl)propionic acid = 1
Method: The best method of indicating long acting anti-inflammatory activity of the compounds is by means of a test in which compounds are administered chronically e.g. the rat adjuvant arthritis test. […] The adjuvant arthritis test conducted on the rat is, however a chronic test and is believed to give a good indication of the effectiveness of the compounds for the treatment of chronic conditions in humans. The adjuvant arthritis test is described by Newbould, B. B., in Br. J. Pharmac. Chemother., 1963, 21, 127. In the test arthritis is produced by injecting intradermally into the tail 0.1 ml. of a suspension of killed human tubercle bacilli (6 mg./ml.) in liquid paraffin BP. A polyarthritis develops over the next 3 weeks in untreated controls. The compounds under test (vehicle only for control animals) are given daily by mouth from the day the adjuvant is injected for 21 days. On day 21 the degree of arthritis is assessed on each hind foot. The degree of inhibition produced by a compound is estimated by comparison of the total arthritic scores with those found in the controls.
In the following Table are given the results in the adjuvant arthritis test for the four preferred compounds of the invention and 2-(2-fluoro-4-biphenylyl)propionic acid, the latter compound being used as a standard of reference in the adjuvant arthritis test.
As with the propionic acids of the invention the half-life of the compounds of the invention in the blood of the subject to which they are administered is a good indication of their duration of activity. The half-life may ve measured by giving oral doses of the compounds and determining levels in the plasma at various times thereafer, as previously described. As with the propionic acids of the invention one of the best methods of indicating long acting anti-inflammatory activity of the compounds is by means of a test in which compounds are administered chronically e.g. the rat adjuvant arthritis test.

Row | SMILES | ADJUVANT ARTHRITIS (activity; 2-(2-fluoro-4-biphenylyl)propionic acid used as standard of reference)
1 | CC(C(=O)O)c1ccc(-c2ccc(Cl)cc2F)c(F)c1 (stereo not drawn) [2-(4'-chloro-2,2'-difluoro-4-biphenylyl)propionic acid] | > 3
2 | CC(C(=O)O)c1ccc(-c2ccc(F)cc2F)c(Cl)c1 (stereo not drawn) [2-(2-chloro-2',4'-difluoro-4-biphenylyl)propionic acid] | > 10
3 | CC(C(=O)O)c1ccc(-c2ccc(F)cc2Cl)c(F)c1 (stereo not drawn) [2-(2'-chloro-2,4'-difluoro-4-biphenylyl)propionic acid] | > 3
4 | CC(C(=O)O)c1ccc(-c2ccccc2)c(F)c1 (stereo not drawn) [2-(2-fluoro-4-biphenylyl)propionic acid, reference compound] | 1
5 | CC(C(=O)O)c1ccc(-c2ccc(F)cc2F)c(F)c1 (stereo not drawn) [2-(2,2',4'-trifluoro-4-biphenylyl)propionic acid] | > 10

same assay, conditions: standard of reference 2-fluoro-4-biphenylylacetic acid

Row | SMILES | times as active as 2-fluoro-4-biphenylylacetic acid in adjuvant arthritis test
6 | O=C(O)Cc1ccc(-c2ccc(F)cc2F)c(F)c1 [2,2', 4'-trifluoro-4-biphenylacetic acid, 2,2',4'-trifluoro-4-biphenylylacetic acid] | more than 30 times
